Test results: US20220041578A1, “ISOINDOLINE COMPOUND, AND PREPARATION METHOD, PHARMACEUTICAL COMPOSITION, AND APPLICATION OF ISOINDOLINE COMPOUND” (Shanghai Institute of Meteria Medica, Chinese Academy of …, priority 2018, published 2022)

Test system: MM.1S cells
Test: Effect of the compound on the proliferation of MM.1S cells (MTS)
Type: cell-based
Conditions: Homo sapiens, MM1.S, 168 h, 7 days, read-out: Cell inhibitory activity (IC50)
Experimental: MM.1S cells were cultured with 1640 plus 10% fetal bovine serum and collected. The cell concentration was diluted according to the action time of 7 days, and 180 ul cell suspension was added to each well of the 96-well cell plate to make the cell count to be 20,000. 20 ul of DMSO with a final concentration of 0.2% was added to the control cell wells. The compound was diluted 5-fold with the 10 mM stock solution, and 20 ul was also added to the compound cell wells (the final concentration of DMSO is 0.2%). The cells were placed in a 37° C., 5% CO2 incubator and incubated for 7 days. After preparing the reaction solution according to the MTS kit (Promega, G5430), 20 μL was added to each well, incubated in a 37° C., 5% CO2 incubator for 3-4 h. Read the 490 nm absorbance value with a microtiter plate, and used the 690 nm absorbance value as the background value and OD490-OD690 as the final initial data. The formula for calculating the inhibition rate of the compound is: inhibition rate=(OD DMSO-ODcompound)/(ODDMSO-Oblank)×100%. The compound's proliferation inhibition IC50 was fitted by Graph Pad Prism 5.0. The experiment was repeated three times, and three parallel experiments were used to calculate the average and standard deviation each time.

| IC50 | Structure (SMILES) |
| --- | --- |
| < 150 nM | O=C1CCC(N2Cc3c(OCCc4cn(-c5ccc(OC(F)(F)F)cc5)nn4)cccc3C2=O)C(=O)N1 (centres unmarked) [Compound 61, 3-(1-oxo-4-(2-(1-(4-(trifluoromethoxy)phenyl)-1H-1,2,3-triazol-4-)ethoxy)isoindoline-2-) piperidine-2,6-dione] |
| > 20000 nM | C[C@]12CC3CC(n4cc(COc5cccc6c5CN(C5CCC(=O)NC5=O)C6=O)nn4)(C1)C[C@@](C)(C3)C2 (stereo partly drawn) [Compound 89, 3-(4-((1-((1R, 3R, 5S, 7R)-3,5-dimethyladamantin-1-yl)-1H-1,2,3-triazol-4-yl)methoxy)-1-isoindolin-2-yl) piperidin-2,6-dione] |
| < 150 nM | C[C@H](Cc1ccccc1)n1cc(COc2cccc3c2CN(C2CCC(=O)NC2=O)C3=O)nn1 (stereo partly drawn) [Compound 58, 3-(1-oxo-4-((1-((R)-1-phenylpropyl-2-)-1H-1,2,3-triazol-4-)methoxy)isoindolin-2-) piperidine-2,6-dione] |
| 150 to 20000 nM | O=C1CCC(N2Cc3c(OC[C@@H]4CCN(c5ccnc6ccccc56)C4)cccc3C2=O)C(=O)N1 (stereo partly drawn) [Compound 66, 3-(1-oxo-4-(((R)-1-(quinolin-4-)pyrrolin-3-)methoxy)isoindolin-2-) piperidine-2,6-dione] |
| < 150 nM | O=C1CCC(N2Cc3c(OCc4cn(Cc5ccc(N6CCOCC6)cc5)nn4)cccc3C2=O)C(=O)N1 (centres unmarked) [Compound 8, 3-(4-((1-(4-morpholinbenzyl)-1H-1,2,3-triazol-4-)methoxy)-1-oxoisoindolin-2-) piperidine-2,6-dione] |
| 150 to 20000 nM | COCCn1ccc2cc(-n3cc(COc4cccc5c4CN([C@@]4(C)CCC(=O)NC4=O)C5=O)nn3)ccc21 [Compound 36, (S)-3-(4-((1-(1-(2-methoxyethyl)-1H-indol-5-)-1H-1,2,3-triazol-4-)methoxy)-1-oxoisoindolin-2-)-3-methylpiperidine-2,6-dione] |
| 150 to 20000 nM | O=C1CCC(N2Cc3c(OCCC4CN(c5ccnc6ccccc56)C4)cccc3C2=O)C(=O)N1 (centres unmarked) [Compound 69, 3-(1-oxo-4-(2-(1-(quinolin-4-)azetidin-3-)ethoxy)isoindolin-2-) piperidine-2,6-dione] |
| < 150 nM | O=C1CCC(N2Cc3c(OCc4cn(Cc5cccc(-n6ccnc6)c5)nn4)cccc3C2=O)C(=O)N1 (centres unmarked) [Compound 14, 3-(4-((1-(3-(1H-imidazol-1-)benzyl)-1H-1,2,3-triazol-4-)methoxy)-1-oxoisoindolin-2-) piperidine-2,6-dione] |
| 150 to 20000 nM | O=C1CCC(N2Cc3c(OCc4cn([C@H](CO)Cc5ccccc5)nn4)cccc3C2=O)C(=O)N1 (some centres unmarked) [Compound 54] |
| < 150 nM | CC(n1cc(COc2cccc3c2CN(C2CCC(=O)NC2=O)C3=O)nn1)C12CC3CC(CC(C3)C1)C2 [Compound 88, 3-(4-((1-(1-((1S, 3S)-adamantan-1-yl)ethyl)-1H-1,2,3-triazol-4-yl)methoxy)-1-isoindolin-2-yl) piperidin-2,-6-dione] |
| < 150 nM | O=C1CCC(N2Cc3c(OCC4CCN(c5ccnc6ccccc56)CC4)cccc3C2=O)C(=O)N1 (centres unmarked) [Compound 67, 3-(1-oxo-4-((1-(quinolin-4-)piperidin-4-)methoxy)isoindolin-2-) piperidin-2,6-dione] |
| < 150 nM | C[C@@H](c1ccccc1)n1cc(COc2cccc3c2CN(C2CCC(=O)NC2=O)C3=O)nn1 (some centres unmarked) [Compound 51] |
| > 20000 nM | O=C1CCC(N2Cc3c(OCc4cn(C56CC7CC(CC(O)(C7)C5)C6)nn4)cccc3C2=O)C(=O)N1 [Compound 86, 3-(4-((1-((1R, 3S, 5R, 7S)-3-hydroxyadamantan-1-yl)-1H-1,2,3-triazol-4-yl)methoxy)-1-isoindolin-pyridin-2-yl) piperidin-2,6-dione] |
| < 150 nM | CN(C)c1cccc(Cn2cc(COc3cccc4c3CN(C3CCC(=O)NC3=O)C4=O)nn2)c1 (centres unmarked) [Compound 9] |
| < 150 nM | O=C1CCC(N2Cc3c(OCC4CCC(c5ccc(OC(F)(F)F)cc5)CC4)cccc3C2=O)C(=O)N1 (centres unmarked) [Compound 72, 3-(1-oxo-4-((4-(4-(trifluoromethoxy)phenyl)cyclohexyl)methoxy)isoindolin-2-) piperidine-2,6-dione] |
| > 20000 nM | O=C1CCC(N2Cc3c(OCCc4cn(-c5ccccc5)nn4)cccc3C2=O)C(=O)N1 (centres unmarked) [Compound 60, 3-(1-oxo-4-(2-(1-phenyl-1H-1,2,3-triazol-4-)ethoxy)isoindolin-2-) piperidine-2,6-dione] |
| < 150 nM | Cc1c(COc2cccc3c2CN(C2CCC(=O)NC2=O)C3=O)cnn1-c1c(Cl)cc(OC(F)(F)F)cc1Cl (centres unmarked) [Compound 84, 3-(4-((1-(2,6-dichloro-4-(trifluoromethoxy)phenyl)-5-methyl-1H-pyrazol-4-yl)methoxy)-1-isoindolin-2-1) piperidine-2,6-dione] |
| < 150 nM | CN(C)C[C@H](Cc1ccccc1)n1cc(COc2cccc3c2CN(C2CCC(=O)NC2=O)C3=O)nn1 (some centres unmarked) [Compound 56] |
| < 150 nM | O=C1CCC(N2Cc3c(OCc4cnc(-c5ncc(C(F)(F)F)s5)s4)cccc3C2=O)C(=O)N1 (centres unmarked) [Compound 47] |

| IC50 | Structure (SMILES) |
| --- | --- |
| < 150 nM | Cc1c(COc2cccc3c2CN(C2CCC(=O)NC2=O)C3=O)cnn1-c1c(Cl)cc(C(F)(F)F)cc1Cl (centres unmarked) [Compound 83] |
| < 150 nM | O=C1CCC(N2Cc3c(OCc4cn(-c5ccc(OC6CC6)cc5)nn4)cccc3C2=O)C(=O)N1 (centres unmarked) [Compound 32] |
| < 150 nM | O=C1CCC(N2Cc3c(OCc4cn(Cc5ccccc5)nn4)cccc3C2=O)C(=O)N1 (centres unmarked) [Compound 1] |
| < 150 nM | O=C1CCC(N2Cc3c(OCc4cn(CCc5ccccc5)nn4)cccc3C2=O)C(=O)N1 (centres unmarked) [Compound 49] |
| < 150 nM | O=C1CCC(N2Cc3c(OCc4cnc(-c5ccc(Cl)c(Cl)c5)o4)cccc3C2=O)C(=O)N1 (centres unmarked) [Compound 91, 3-(4-((2-(3,4-dichlorophenyl)oxazol-5-yl)methoxy)-1-oxoisoindol-2-yl) piperidine-2,6-dione] |
| < 150 nM | CN(C)CCn1ccc2cc(-n3cc(COc4cccc5c4CN(C4CCC(=O)NC4=O)C5=O)nn3)ccc21 (centres unmarked) [Compound 27, 3-(4-((1-(1-(2-(dimethylamino)ethyl)-1H-indol-5-)-1H-1,2,3-triazol-4-)methoxy)-1-oxoisoindolin-2-)piperidine-2,6-dione] |
| < 150 nM | O=C1CCC(N2Cc3c(OCc4cn(Cc5ccnc6ccccc56)nn4)cccc3C2=O)C(=O)N1 (centres unmarked) [Compound 4] |
| < 150 nM | O=C1CCC(N2Cc3c(OCc4cn(Cc5cccc(C(F)(F)F)c5)nn4)cccc3C2=O)C(=O)N1 (centres unmarked) [Compound 6, 3-(1-oxo-4-((1-(3-(trifluoromethyl)benzyl)-1H-1,2,3-triazol-4-)methoxy)isoindolin-2-) piperidine-2,6-dione] |
| < 150 nM | O=C1CCC(N2Cc3c(OCc4cn(Cc5cccc(N6CCOCC6)c5)nn4)cccc3C2=O)C(=O)N1 (centres unmarked) [Compound 7, 3-(4-((1-(3-morpholinbenzyl)-1H-1,2,3-triazol-4-)methoxy)-1-oxoisoindolin-2-) piperidine-2,6-dione] |
| 150 to 20000 nM | O=C1CCC(N2C(=O)c3cccc(OCc4cn(-c5ccc(OC(F)(F)F)cc5)nn4)c3C2=O)C(=O)N1 (centres unmarked) [Compound 38, 2-(2,6-dioxopiperidine-3-)-4-((1-(4-trifluoromethoxyphenyl)-1H-1,2,3-triazol-4-)methoxy) isoindolin-1,3-dione] |
| < 150 nM | O=C1CCC(N2Cc3c(CCc4cnc(-c5ccc(OC(F)(F)F)cc5)o4)cccc3C2=O)C(=O)N1 (centres unmarked) [Compound 62, 3-(1-oxo-4-(2-(2-(4-(trifluoromethoxy)phenyl)oxazol-5-yl)ethyl)isoindolin-2-yl) piperidine-2,6-dione] |
| < 150 nM | O=C1CCC(N2Cc3c(NCc4cnc(-c5ccc(OC(F)(F)F)cc5)o4)cccc3C2=O)C(=O)N1 (centres unmarked) [Compound 82] |
| < 150 nM | C[C@H](c1ccccc1)n1cc(COc2cccc3c2CN(C2CCC(=O)NC2=O)C3=O)nn1 (some centres unmarked) [Compound 50] |
| > 20000 nM | O=C1CCC(N2Cc3c(CCCc4cnc(-c5ccc(OC(F)(F)F)cc5)o4)cccc3C2=O)C(=O)N1 (centres unmarked) [Compound 63, 3-(1-oxo-4-(3-(2-(4-(trifluoromethoxy)phenyl)oxazol-5-yl)propyl)isoindolin-2-yl) piperidine-2,6-dione] |
| 150 to 20000 nM | COCCn1ccc2cc(-n3cc(COc4cccc5c4C(=O)N([C@@]4(C)CCC(=O)NC4=O)C5=O)nn3)ccc21 [Compound 37, (S)-4-((1-(1-(2-methoxyethyl)-1H-indole-5-)-1H-1,2,3-triazol-4-)methoxy)-2-(3-methyl-2,6-dioxopiperidine-3-) isoindolin-1,3-dione] |
| < 150 nM | O=C1CCC(N2Cc3c(OCc4cn(-c5ccccc5)nn4)cccc3C2=O)C(=O)N1 (centres unmarked) [Compound 15, 3-(1-oxo-4-((1-phenyl-1H-1,2,3-triazol-4-)methoxy)isoindolin-2-) piperidine-2,6-dione] |
| < 150 nM | O=C1CCC(N2Cc3c(OCc4cn(Cc5cccc(OC(F)(F)F)c5)nn4)cccc3C2=O)C(=O)N1 (centres unmarked) [Compound 11] |
| < 150 nM | COC[C@@H](Cc1ccccc1)n1cc(COc2cccc3c2CN(C2CCC(=O)NC2=O)C3=O)nn1 (some centres unmarked) [Compound 52] |
| < 150 nM | O=C1CCC(N2Cc3c(OCc4cnc(-c5nc6ccccc6s5)s4)cccc3C2=O)C(=O)N1 (centres unmarked) [Compound 46, 3-(4-(2-(benzo[d]thiazol-2-)thiazol-5-)methoxy)-1-oxoisoindolin-2-) piperidine-2,6-dione] |
